Assay results taken from patent US6297250A, “Pyrimidopyrimidine compounds” (Newcastle University Ventures Limited, priority 1997, dated 2001).
“And” between values parts separate entries of the source, which are not always exact repeats. Identical values can stand only once. Like-named read-outs stand apart in the source and are kept apart here.

How the values were obtained:
[1] = tested on: MCF7; conditions: earlier experiments; cited from earlier work
[2] = tested on: A549; conditions: earlier experiments; cited from earlier work
[3] = tested on: L1210 cells; experiment: Nucleoside transport inhibition assay: inhibition of 3H-thymidine uptake, with or without AGP or HSA; assay type: cell-based, murine; conditions: for % Inhibition of 3H-thymidine uptake, No AGP: 1 μM compound, 1 µM; for inhibition at 1 µM: L1210, 1 μM compound; for inhibition at 10 µM: L1210, 10 μM compound; for Effect of AGP on the inhibition of thymidine uptake: in words; for Potency as inhibitor relative to dipyridamole: presence and absence of AGP, or of 40 mg/ml human serum albumin
Method: In vitro activity. […] For testing the compounds an established nucleoside transport assay involving measurement of thymidine uptake was adapted. Murine leukaemia L1210 cells were used in this assay as their nucleoside transport characteristics are well known. This assay for measuring thymidine uptake used a modification of the rapid mixing technique of Wohleheuter, R. […] Materials used included a transport buffer comprising 130 mM NaCl, 5 mM KC1, 1 mM MgCl, 5 mM NaH2 PO4, 10 mM glucose and 10 mM HEPES. This buffer was made up as sterile 5× concentrate and reconstituted in distilled water and adjusted to pH 7.4 immediately prior to carrying out the assay. […] The supernatant was aspirated and the cells were washed with ice-cold transport buffer and centrifuged again at 1000 rpm for 5 minutes at 4° C. The supernatant was removed and the cells were resuspended in ice-cold transport buffer to give a final cell density of 2-4×10^7 cells/mi. Cells were left on ice for 30 minutes recovery prior to starting the assay. […] The suspension was mixed well and 100 μl was layered onto 150 μl silicone oil (9:11 Dow Corning 556 (Sp.Gr. 0.98):Dow Corning 550 (Sp.Gr. 1.068) (final Sp.Gr. 1.028) overlaying 50 μl 3M KOH in 6 replicate 0.5 ml microfuge tubes. […] The tubes were immediately transferred to a microfuge (Eppendorf) and spun at 12000 rpm for 2 minutes to pellet the cells through the oil and into the KOH. The tubes were capped and the cells left to solubilise in the KOH for 1 hour. Cell number and viability for each run was determined by haemocytometer counting using trypan blue exclusion. […] The tubes were capped and cut in the oil layer such that the bottom portion (cells solubilised in KOH) fell into a 20 ml scintillation vial. 1 ml 0.25M acetic acid followed by 1 ml air was injected into the tube using a 2 ml syringe and 23-gauge needle to disperse and neutralise the KOH-solubilisedcells. 10 ml of Optiphase HiSafe™ scintillant was added and the vials capped and shaken. […] The [^14 C]:[^3 H] ratio was used to calculate the amount of non-transported contaminating [^3 H]thymidine in the extracellular space.

[4] = tested on: MCF7; experiment: Prevention of hypoxanthine rescue from antifolate growth inhibition (sulphorhodamine B); assay type: cell-based; conditions: 3 μM NU3076, 10 μM hypoxanthine
Method: (§1) For example, in investigating the compound NU3076, two lung cancer cell lines: A549 and COR L23 and two breast cancer cell lines MCF7 and MDA MB231 were selected for study. All cell lines were adapted to growth in dialysed serum as previously referred to. […] Cells were exposed to varying concentrations of LY309887 in the presence or absence of 10 μM hypoxanthine, with or without 3 μM NU3076. At the end of the exposure period the cells were fixed and stained with sulphorhodamine B. Hypoxanthine protected all the cell lines from LY309887 growth inhibition.

[5] = tested on: A549; experiment: as above; assay type: cell-based; conditions: 3 μM NU3076, 10 μM hypoxanthine
Method: as §1

[6] = Mus musculus, no AGP, read-out: % Inhibition of 3H-thymidine uptake, No AGP
[7] = Mus musculus, +5 mg/ml AGP vs no AGP, read-out: % Reduction (of inhibition by AGP)
[8] = Mus musculus, +5 mg/ml AGP, read-out: % Inhibition of 3H-thymidine uptake, +5 mg/ml AGP

SMILES | IC50 ([3]; Mus musculus, L1210, no AGP) | IC50 ([3]; no AGP) | Block of hypoxanthine rescue from lometerxol growth inhibition [1] | Block of hypoxanthine rescue from lometerxol growth inhibition [2] | % Inhibition of 3H-thymidine uptake, No AGP ([3]; no AGP) | % Inhibition of 3H-thymidine uptake, +5 mg/ml AGP ([3]; +5 mg/ml AGP, compound concentration not assignable from the table) | inhibition at 0.1 µM ([3]; Mus musculus, L1210, 0.1 μM compound, no AGP) | inhibition at 1 µM [3, 6] | inhibition at 1 µM [3, 7] | inhibition at 1 µM [3, 8] | inhibition at 10 µM [3, 7] | inhibition at 10 µM [3, 8] | inhibition at 10 µM [3, 6] | Effect of AGP on the inhibition of thymidine uptake [3] | Potency as inhibitor relative to dipyridamole [3] | % Inhibition of 3H-thymidine uptake, +40 mg/ml HSA ([3]; 3 h) | Prevention of hypoxanthine rescue from LY309887 growth inhibition [4] | Prevention of hypoxanthine rescue from LY309887 growth inhibition [5] | inhibition at 100 µM ([3]; Mus musculus, L1210, 100 μM compound, no AGP, read-out: % Inhibition of 3H-thymidine uptake, No AGP)
OCCN(CCO)c1nc(N2CCCCC2)c2nc(N(CCO)CCO)nc(N3CCCCC3)c2n1 [NU3003, 2,6-bis(diethanolamino)-4,8-dipiperidinopyrimidopyrimidine, reference compound] | – | – | blocked hypoxantine rescue | blocked hypoxantine rescue | – | – | – | – | – | – | – | – | – | – | – | – | – | – | –
COc1ccc(CNc2nc(N(CCO)CCO)nc3c(NCc4ccc(OC)cc4)nc(N(CCO)CCO)nc23)cc1 [NU3076, 2,6-bis (Diethanolamino)-4,8-di[(4'-methoxybenzyl)amino]pyrimidopyrimidine] | 253 ± 75 nM | – | – | – | 56 ± 10% | – | – | 65 ± 11% | 18% | 46 ± 8% | 7% | 89 ± 14% | 96 ± 8% | no significant reduction | more potent inhibitors than dipyridamole | 89 ± 10% | prevented hypoxanthine rescue | prevented hypoxanthine rescue | –
CCCOc1nc(N2CCCCC2)c2nc(OCCC)nc(N3CCCCC3)c2n1 [NU3064, 2,6-Di(n)propoxy-4,8-dipiperidinopyrimidopyrimidine] | 52000 nM | – | – | – | – | – | – | – | – | – | – | – | 37 ± 11% | – | – | – | – | – | 60 ± 9%

Now from value to molecule, other results behind:

IC50 ([3]; Mus musculus, L1210, no AGP) | IC50 ([3]; no AGP) | SMILES | Block of hypoxanthine rescue from lometerxol growth inhibition [1] | Block of hypoxanthine rescue from lometerxol growth inhibition [2] | % Inhibition of 3H-thymidine uptake, No AGP ([3]; no AGP) | % Inhibition of 3H-thymidine uptake, +5 mg/ml AGP ([3]; +5 mg/ml AGP, compound concentration not assignable from the table) | inhibition at 0.1 µM ([3]; Mus musculus, L1210, 0.1 μM compound, no AGP) | inhibition at 1 µM [3, 6] | inhibition at 1 µM [3, 7] | inhibition at 1 µM [3, 8] | inhibition at 10 µM [3, 7] | inhibition at 10 µM [3, 8] | inhibition at 10 µM [3, 6] | Effect of AGP on the inhibition of thymidine uptake [3] | Potency as inhibitor relative to dipyridamole [3] | % Inhibition of 3H-thymidine uptake, +40 mg/ml HSA ([3]; 3 h) | Prevention of hypoxanthine rescue from LY309887 growth inhibition [4] | Prevention of hypoxanthine rescue from LY309887 growth inhibition [5] | inhibition at 100 µM ([3]; Mus musculus, L1210, 100 μM compound, no AGP, read-out: % Inhibition of 3H-thymidine uptake, No AGP)
930 nM | 1200 nM | COc1ccc(CNc2nc(NCCO)nc3c(NCc4ccc(OC)cc4)nc(NCCO)nc23)cc1 [NU3099, 2,6-Di-(2-hydroxyethyl)amino-4,8-di-[4-methoxybenzyl]-aminopyrimidopyrimidine] | – | – | 52% and 62% and 65% | 30% and 35% | 5% | 54% | – | – | – | – | – | – | – | – | – | – | –
250 nM | – | COc1ccc(CNc2nc(N(CCO)CCO)nc3c(NCc4ccc(OC)c(OC)c4)nc(N(CCO)CCO)nc23)cc1OC [NU3084, 2,6-bis(Diethanolamino)-4,8-bis[(3',4'-dimethoxybenzyl)amino]pyrimidopyrimidine] | – | – | 67 ± 10% | – | – | 74 ± 16% | 4% | 64 ± 3% | 5% | 93 ± 10% | 98 ± 5% | no significant reduction | more potent inhibitors than dipyridamole | – | – | – | –
